Test results published in patent US9682977B2, “Bicyclic heteroaryl indole analogues useful as ROR gamma modulators” (Glenmark Pharmaceuticals S.A., priority 2013, dated 2017).
Where two headings read alike, the source gives them in different places.

Target: T1, GST-tagged ROR gamma ligand binding domain (LBD) (Homo sapiens, UniProt P51449)
T1 construct: purchased Invitrogen
T1 sequence (P51449 269-508 limits assumed): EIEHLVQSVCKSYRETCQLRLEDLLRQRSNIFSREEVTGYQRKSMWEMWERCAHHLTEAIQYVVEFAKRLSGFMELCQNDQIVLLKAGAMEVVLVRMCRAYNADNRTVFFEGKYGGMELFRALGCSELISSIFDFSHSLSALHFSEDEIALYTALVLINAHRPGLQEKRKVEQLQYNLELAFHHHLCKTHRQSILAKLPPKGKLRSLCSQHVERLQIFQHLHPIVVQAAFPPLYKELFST
Experiment: TR-FRET assay for ROR gamma (Lantha Screen, co-activator peptide recruitment)
Assay type: biochemical
Details: for inhibition at 1 µM: read-out: % inhibition at 1 μM; for inhibition at 10 µM: read-out: % inhibition at 10 μM

[1] = class symbols, from dose response curve, read-out: IC50 value
[2] = compound concentration 1 μM, TR-FRET ratio 520/495, percent of control
[3] = compound concentration 10 μM, TR-FRET ratio 520/495, percent of control

Structure (SMILES) | IC50 [1] [nM] | inhibition at 1 µM [2] [%] | inhibition at 10 µM [3] [%] | IC50 [nM] | inhibition at 1 µM [%] | inhibition at 10 µM [%]
O=C(O)c1ccc(-n2cc(C(=O)c3ccccc3F)c3ccccc32)cc1 [Example 15, 4-{3-[(2-Fluorophenyl)carbonyl]-1H-indol-1-yl}benzoic acid] | > 100 | 76.4 | 95.8 |  |  | 
O=C(O)c1ccc(-n2cc(C(=O)c3c(Cl)cccc3Cl)c3ccccc32)cc1 [Example 16, 4-{3-[(2,6-Dichlorophenyl)carbonyl]-1H-indol-1-yl}benzoic acid] |  |  |  | < 50 | 96 | 97.2
O=C(O)c1ccc(-n2cc(C(=O)c3ccccc3Cl)c3ccccc32)cc1 [Example 17, 4-{3-[(2-Chlorophenyl)carbonyl]-1H-indol-1-yl}benzoic acid] |  |  |  | 50 to 100 | 84.9 | 96
O=C(O)c1ccc(-n2cc(C(=O)c3c(F)cccc3F)c3ccccc32)cc1 [Example 18, 4-{3-[(2,6-Difluorophenyl)carbonyl]-1H-indol-1-yl}benzoic acid] |  |  |  | 50 to 100 | 81 | 94.5
O=C(O)c1ccc(-n2cc(C(=O)c3ccccc3Cl)c3ccccc32)c(F)c1 [Example 20, 4-{3-[(2-Chlorophenyl)carbonyl]-1H-indol-1-yl}-3-fluorobenzoic acid] | < 50 | 95.7 | 100 |  |  | 
O=C(O)c1ccc(-n2cc(C(=O)c3c(Cl)cccc3C(F)(F)F)c3ccccc32)c(F)c1 [Example 21, 4-{3-[2-Chloro-6-(trifluoromethyl)benzoyl]-1H-indol-1-yl}-3-fluorobenzoic acid] |  |  |  | < 50 | 92.2 | 92.4
O=C(O)c1ccc(-n2cc(C(=O)c3c(Cl)cccc3Cl)c3c(F)cccc32)c(F)c1 [Example 22, 4-[3-(2,6-Dichlorobenzoyl)-4-fluoro-1H-indol-1-yl]-3-fluorobenzoic acid] |  |  |  | < 50 | 96.8 | 99.3
O=C(O)c1ccc(-n2cc(C(=O)c3c(Cl)cccc3Cl)c3cc(F)ccc32)c(F)c1 [Example 23, 4-[3-(2,6-Dichlorobenzoyl)-5-fluoro-1H-indol-1-yl]-3-fluorobenzoic acid] | < 50 | 98.2 | 96.7 |  |  | 
O=C(O)c1ccc(-n2cc(C(=O)c3c(Cl)cccc3Cl)c3ccc(F)cc32)c(F)c1 [Example 24, 4-[3-(2,6-Dichlorobenzoyl)-6-fluoro-1H-indol-1-yl]-3-fluorobenzoic acid] | < 50 | 95.8 | 97.8 |  |  | 
CN(C)C(=O)c1ccc2c(C(=O)c3c(Cl)cccc3Cl)cn(-c3ccc(C(=O)O)cc3F)c2c1 [Example 26, 4-[3-(2,6-Dichloro-benzoyl)-6-dimethylcarbamoyl-indol-1-yl]-3-fluoro-benzoic acid] |  |  |  |  | 31.3 | 33.7
O=C(O)c1ccc(-n2cc(C(=O)c3c(Cl)cccc3Cl)c3cccnc32)c(F)c1 [Example 27, 4-[3-(2,6-Dichlorobenzoyl)-1H-pyrrolo[2,3-b]pyridin-1-yl]-3-fluorobenzoic acid] | < 50 | 95.6 | 97.9 |  |  | 
O=C(O)c1ccc(-n2nc(C(=O)c3ccccc3)c3ccccc32)cc1 [Example 28, 4-[3-(Phenylcarbonyl)-1H-indazol-1-yl]benzoic acid] |  | 30.2 | 62.9 |  |  | 
O=C(O)c1ccc(-n2nc(C(=O)c3c(Cl)cccc3Cl)c3ccccc32)cc1 [Example 29, 4-[3-(2,6-Dichlorobenzoyl)-1H-indazol-1-yl]benzoic acid] | < 50 | 96.9 | 94.3 |  |  | 
O=C(O)c1ccc(-n2nc(C(=O)c3ccccc3)c3ccccc32)c(F)c1 [Example 30, 4-(3-Benzoyl-1H-indazol-1-yl)-3-fluorobenzoic acid] |  | 47.1 | 88.9 |  |  | 
O=C(O)c1ccc(-n2nc(C(=O)c3c(Cl)cccc3Cl)c3ccccc32)c(F)c1 [Example 31, 4-[3-(2,6-Dichlorobenzoyl)-1H-indazol-1-yl]-3-fluorobenzoic acid] | < 50 | 96.6 | 91.6 |  |  | 
O=C(O)c1ccc(-n2nc(C(=O)c3c(Cl)cccc3Cl)c3cccc(F)c32)cc1 [Example 32, 4-{3-[(2,6-Dichlorophenyl)carbonyl]-7-fluoro-1H-indazol-1-yl}benzoic acid] | < 50 | 94.6 | 90.4 |  |  | 
O=C(O)c1ccc(-n2nc(C(=O)c3c(Cl)cccc3C(F)(F)F)c3ccccc32)c(F)c1 [Example 33, 4-(3-{[2-Chloro-6-(trifluoromethyl)phenyl]carbonyl}-1H-indazol-1-yl)-3-fluorobenzoic acid] | < 50 | 98.1 | 94.1 |  |  | 
O=C(O)c1ccc(-n2nc(C(=O)c3c(Cl)cccc3C(F)(F)F)c3ccccc32)cc1 [Example 34, 4-(3-{[2-Chloro-6-(trifluoromethyl)phenyl]carbonyl}-1H-indazol-1-yl)-benzoic acid] | < 50 | 96.9 | 92 |  |  | 
O=C(O)c1ccc(-n2nc(C(=O)c3c(Cl)cccc3C3CC3)c3cccc(F)c32)cc1 [Example 35, 4-{3-[(2-Chloro-6-cyclopropylphenyl)carbonyl]-7-fluoro-1H-indazol-1-yl}benzoic acid] | < 50 | 92.3 | 89.2 |  |  | 
O=C(O)c1ccc(-n2nc(C(=O)c3c(Cl)cccc3Cl)c3cccnc32)cc1 [Example 36, 4-{3-[(2,6-Dichlorophenyl)carbonyl]-1H-pyrazolo[3,4-b]pyridin-1-yl}benzoic acid] | < 50 | 95.7 | 96.4 |  |  | 
O=C(O)c1ccc(-n2nc(C(=O)c3c(Cl)cccc3C3CC3)c3cccnc32)cc1 [Example 37, 4-{3-[(2-Chloro-6-cyclopropylphenyl)carbonyl]-1H-pyrazolo[3,4-b]pyridin-1-yl}benzoic acid] | < 50 | 97.6 | 94.6 |  |  | 
O=C(O)c1ccc(-n2nc(C(=O)c3c(Cl)cccc3C(F)(F)F)c3cccnc32)cc1 [Example 38, 4-(3-{[2-Chloro-6-(trifluoromethyl)phenyl]carbonyl}-1H-pyrazolo[3,4-b]pyridin-1-yl)benzoic acid] | < 50 | 96.8 | 93.5 |  |  | 
CCOC(=O)c1ccc(-n2cc(C(=O)c3c(Cl)cccc3Cl)c3ccccc32)c(F)c1 [Example 39, Ethyl 4-{3-[(2,6-dichlorophenyl)carbonyl]-1H-indol-1-yl}-3-fluorobenzoate] |  |  |  |  | 15.4 | 25
CCCOC(=O)c1ccc(-n2cc(C(=O)c3c(Cl)cccc3Cl)c3ccccc32)c(F)c1 [Example 40, Propyl 4-{3-[(2,6-dichlorophenyl)carbonyl]-1H-indol-1-yl}-3-fluorobenzoate] |  |  |  |  | 9.11 | 
CCCCOC(=O)c1ccc(-n2cc(C(=O)c3c(Cl)cccc3Cl)c3ccccc32)c(F)c1 [Example 41, Butyl 4-{3-[(2,6-dichlorophenyl)carbonyl]-1H-indol-1-yl}-3-fluorobenzoate] |  |  |  |  | 5.13 | 
